pIC50: −log10 of the molar value. Read-outs that look alike come from different tables or passages of the source.
Legend:
[1] = test system: SOX17 in H9 human ESC line; conditions: SOX17 half-maximal inhibition concentration; read-out: hPST IC50; cited from earlier work
[2] = cited from earlier work; for Development Toxicant Classification: Table S2; for Classification: developmental toxicant classification (Teratogen / Non-Teratogen) of reference and training chemicals, ref DOI per chemical: 10.1093/toxsci/kft239, 10.1093/toxsci/kfaa014, 10.1177/026119290203000204, 10.1038/s41598-020-59542-x; for DT Class.: developmental toxicant classification, chemicals common with hPST
H9 human ESC line = conditions: cited from earlier work
RUES2-GLR cells = experiment: DevTox GLR-Endo assay: decrease in total cell count, cytotoxicity (AEID 3098, CellCount_dn); conditions: for Emax: Homo sapiens, read-out: Cell Count % Max Inhibition
[3] = as above; conditions: human
[4] = test system: SOX2 (ectoderm and pluripotency marker) in RUES2-GLR cells; experiment: DevTox GLR-Endo assay: increase in percent SOX2-positive cells (AEID 3095, Sox2_up); conditions: for AC50 / Emax: Homo sapiens; for AC50: read-out: ga (winning model); for Emax: read-out: tp (winning model); for MAX_MEAN: tcpl plot AEID3095, maximum mean response; for MAX_MED: tcpl plot AEID3095, maximum median response
[5] = test system: SOX17 (endoderm marker) in RUES2-GLR cells; experiment: DevTox GLR-Endo assay: decrease in percent SOX17-positive cells (AEID 3094, Sox17_dn); conditions: for Hit Call: Table S2, SOX17-positive cells, cutoff 3*bmad; for HIT−CALL: tcpl plot AEID3094, COFF 20.3
How it was run: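 RUES2-GLR cells under endoderm differentiation exposed to test chemicals for 48 h in total, with 0.2% DMSO solvent control and SB431542 (1 µM) as developmental-toxicant control. Endpoints: decrease in total cell count and in percent SOX17-positive cells; n = 4 biological replicates minimum.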

[6] = test system: SOX17 (endoderm marker) in RUES2-GLR cells; experiment: DevTox GLR-Endo assay: increase in percent SOX17-positive cells (AEID 3093, Sox17_up); assay type: cell-based, human; conditions: for Emax: Homo sapiens; for HIT−CALL: tcpl plot AEID3093, COFF 20.3
Procedure: (§1) The total test chemical incubation period was 48 h.
(§2) (Supplementary Materials).

[7] = test system: BRA (mesoderm marker) in RUES2-GLR cells; experiment: DevTox GLR-Endo assay: increase in percent BRA-positive cells (AEID 3096, Bra_up); assay type: cell-based, human; conditions: for HIT−CALL: tcpl plot AEID3096, COFF 0.774; for MAX_MEAN: tcpl plot AEID3096, maximum mean response
Procedure: as §1, §2

[8] = cytotoxicity half-maximal concentration
[9] = Homo sapiens, 48 h, read-out: DevTox-GLR Endo AC50 (µM), SOX17 half-maximal activity concentration, 48 h exposure
[10] = Homo sapiens, read-out: DevTox % Max Inhibition
[11] = Homo sapiens, read-out: MAX_MEAN
[12] = Homo sapiens, read-out: MAX_MED
[13] = Homo sapiens, read-out: ga (winning model), tcpl plot AEID3094, gain parameter of winning curve fit (log concentration, µM axis), hit calls only (converted)
[14] = Homo sapiens, read-out: tp (winning model)
[15] = Table S2, percent SOX17-positive cells, 48 h exposure
[16] = tcpl plot AEID3093, maximum mean response, read-out: MAX_MEAN
[17] = tcpl plot AEID3093, maximum median response, read-out: MAX_MED

Compound | pIC50 [1] | Development Toxicant Classification [2] | Classification [2] | DT Class. [2] | hPST TC50 (H9 human ESC line; [8]) [µM] | hPST TC50 (H9 human ESC line; hPST cytotoxicity) [µM] | Emax (RUES2-GLR cells) [%] | MAX_MEAN [4] [Percent Activity] | MAX_MED [4] [Percent Activity] | AC50 [5, 9] [µM] | Emax [5, 10] [%] | Emax [5, 11] [%] | Emax [5, 12] [%] | Hit Call [5] | DevTox ACC [5, 15] [µM] | HIT−CALL [5] | Emax [6, 16] [%] | Emax [6, 17] [%] | HIT−CALL [6] | Cell Count ACC (RUES2-GLR cells; human, 48 h) [µM] | also measured
COc1cc2c(Nc3ccc(Br)cc3F)ncnc2cc1OCC1CCN(C)CC1 [Vandetanib] | 5.46 | Positive | Teratogen | Pos | 4.4 | 4.4 | 98.3 | 10.9 | 10.8 | 4.9 | 102 | 102 | 102 | Positive | 4.123 | 1 | 7.33 | 9.78 | 0 | – | Cell Count ACC (RUES2-GLR cells; Table S2, 48 h exposure): 2.124 µM; CC50 at 48 h ([3]; RUES2-GLR cells under directed endoderm differentiation): 4.32 µM; AC50 [4]: 7.23 µM; Emax [4]: 23.1%; AC50 [5, 13]: 4.91 µM; Emax [5, 14]: 101%
Nc1nc2ncc(CNc3ccc(C(=O)N[C@@H](CCC(=O)O)C(=O)O)cc3)nc2c(=O)[nH]1 [Folic Acid] | 4.41 | – | – | – | 84 | 84 | 13.7 | 0.885 | 0.515 | > 200 | 16.4 | 13.8 | 16.4 | Negative | >200 | 0 | 8.84 | 8.92 | 0 | >200 | CC50 at 48 h [3]: > 200 µM
Cn1c(=O)c2c(ncn2C)n(C)c1=O [Caffeine] | < 3.40 | – | – | – | – | – | 10.3 | 0.413 | 0.416 | – | 9.41 | 6.68 | 9.41 | Negative | >200 | 0 | 9.91 | 11 | 0 | >200 | CC50 at 48 h [3]: > 200 µM; AC50 ([5]; Homo sapiens, 48 h, read-out: DevTox-GLR Endo AC50 (µM)): > 200 µM; HIT−CALL [7]: 1; MAX_MEAN [7]: 1.09 Percent Activity
CC1=C(/C=C/C(C)=C/C=C/C(C)=C\C(=O)O)C(C)(C)CCC1 | 6.70 | Positive | Teratogen | Pos | 140 | 140 | – | 47.5 | 48.5 | – | – | – | – | Positive | 0.02117 | 1 | – | – | 0 | – | Cell Count ACC (RUES2-GLR cells): 4.122 µM; Cell Count % Max Inhibition (RUES2-GLR cells; Table S2, cell count relative to DMSO): 97.7228%; CC50 (RUES2-GLR cells; read-out: DevTox-GLR Endo CC50, cell count half-maximal concentration, 48 h exposure): 10.2 µM; ga (winning model) ([4]; tcpl plot AEID3095, gain parameter of winning curve fit (log concentration, µM axis), hit calls only): 1.54; tp (winning model) ([4]; tcpl plot AEID3095, top of winning curve fit (Hill or gain-loss), hit calls only): 39.6; SOX17 ACC relative to cytotoxic concentration (in words) [5]: below cytotoxic concentrations; DevTox % Max Inhibition ([5]; Table S2, percent SOX17-positive cells relative to DMSO): 100.964%; AC50 ([5]; read-out: DevTox-GLR Endo AC50, SOX17 half-maximal activity concentration, 48 h exposure): 0.16 µM; ga (winning model) ([5]; tcpl plot AEID3094, gain parameter of winning curve fit (log concentration, µM axis), hit calls only): −0.807; MAX_MEAN ([5]; tcpl plot AEID3094, maximum mean response): 101 Percent Activity; MAX_MED ([5]; tcpl plot AEID3094, maximum median response): 101 Percent Activity; tp (winning model) ([5]; tcpl plot AEID3094, top of winning curve fit (Hill or gain-loss), hit calls only): 100; MAX_MEAN ([6]; tcpl plot AEID3093, maximum mean response): −11.9 Percent Activity; MAX_MED ([6]; tcpl plot AEID3093, maximum median response): −11.9 Percent Activity
Nc1nc2c(ncn2COCCO)c(=O)[nH]1 [Acyclovir] | < 3.70 | – | – | – | – | – | 7.77 | 2.09 | 0.473 | – | 7.79 | 8.36 | 7.79 | Negative | – | 0 | 6.68 | 7.67 | 0 | >200 | HIT−CALL [7]: 1; MAX_MEAN [7]: 0.981 Percent Activity; MAX_MED ([7]; tcpl plot AEID3096, maximum median response): 1.09 Percent Activity
CC(C)Cc1ccc(C(C)C(=O)O)cc1 (stereo not drawn) [Ibuprofen] | < 3.70 | – | – | – | – | – | 22.2 | 0.944 | 0.561 | – | 23.9 | 24.3 | 23.9 | Positive | – | 1 | 11.6 | 11.9 | 0 | 122.424 | Emax [5, 14]: 42.6%
CN1CCN2c3ccccc3Cc3ccccc3C2C1 (stereo not drawn) [Mianserin] | – | Positive | Teratogen | Pos | 60 | 60 | 97.7 | 4.94 | 5.45 | 34.9 | 101 | 101 | 101 | Positive | – | 1 | 2.7 | 3.98 | 0 | 18.6008 | CC50 at 48 h [3]: 33.6 µM; AC50 [4]: 85.1 µM; Emax [4]: 13.7%; DevTox ACC ([5]; 48 h): 13.5618 µM; AC50 [5, 13]: 34.7 µM; Emax [5, 14]: 122%

Reference: article PMC9321663, “The DevTox Germ Layer Reporter Platform: An Assay Adaptation of the Human Pluripotent Stem Cell Test” (Toxics, 2022)
